The subject of the assay is lashes and adjacent hairs. In words: Observation of lashes and adjacent hairs in glaucoma patients treated with bimatoprost in only one eye. In kind it is in vivo. The settings on record: glaucoma patients taking bimatoprost in only one eye. From the text:
In the course of treating patients having glaucoma, treatment may only be appropriate in one eye. […] The lash appearance on the lids of the treated eyes would have appeared quite attractive if it represented a bilateral phenomenon. As a result of its asymmetric nature, the long lash'es on one side could be construed as disturbing from a cosmetic standpoint. A systemic examination was preformed as a result of the asymmetric phenomenon. It soon became apparent that this altered appearance was not an isolated finding. […] Definite differences could be identified to varying degrees in the lashes and adjacent hairs of all patients who were taking the drug on a unilateral basis for longer than 6 months.
The changes in the lashes were apparent on gross inspection in several patients once attention was focused on the issue. In those with light colored hair and lashes, the differences were only seen easily with the aid of the high magnification and lighting capabilities of the slit lamp biomicroscope. In the course of glaucoma follow-up examination, attention is generally immediately focused on the eye itself. As a result of the high power magnification needed only one eye is seen at a time and the eye is seen at a high enough power that the lashes are not in focus. […]

Data on one molecule can be found in patent US20110059967A1, “THERAPEUTIC COMPOUNDS” (Allergan Inc., priority 2008, published 2011).

Entries after “also recorded” stand apart in the source; their conditions may differ.

Regarding `CCNC(=O)CCC/C=C\C[C@@H]1[C@@H](/C=C/[C@@H](O)CCc2ccccc2)[C@H](O)C[C@@H]1O` [bimatoprost], the “hair growth: lashes of the treated eye compared with the non-treated eye” value was “longer, thicker, and fuller; also recorded: hair growth is stimulated”.
